Measured values from article doi:10.1101/2025.11.11.687791v2, “Structural basis for multiple binding modes of antimalarial ligands targeting Plasmodium falciparum NCR1” (biorxiv, 2026).

Tests used:
Format in all cases: binding
PfNCR1 [1] = target: T1, PfNCR1 (Plasmodium falciparum, UniProt Q8I266); test: tryptophan fluorescence quenching; settings: purified protein in GDN; ecto site
T1 construct: gene NCR1; CHS added for structural samples
T1 sequence (Q8I266 1-1470): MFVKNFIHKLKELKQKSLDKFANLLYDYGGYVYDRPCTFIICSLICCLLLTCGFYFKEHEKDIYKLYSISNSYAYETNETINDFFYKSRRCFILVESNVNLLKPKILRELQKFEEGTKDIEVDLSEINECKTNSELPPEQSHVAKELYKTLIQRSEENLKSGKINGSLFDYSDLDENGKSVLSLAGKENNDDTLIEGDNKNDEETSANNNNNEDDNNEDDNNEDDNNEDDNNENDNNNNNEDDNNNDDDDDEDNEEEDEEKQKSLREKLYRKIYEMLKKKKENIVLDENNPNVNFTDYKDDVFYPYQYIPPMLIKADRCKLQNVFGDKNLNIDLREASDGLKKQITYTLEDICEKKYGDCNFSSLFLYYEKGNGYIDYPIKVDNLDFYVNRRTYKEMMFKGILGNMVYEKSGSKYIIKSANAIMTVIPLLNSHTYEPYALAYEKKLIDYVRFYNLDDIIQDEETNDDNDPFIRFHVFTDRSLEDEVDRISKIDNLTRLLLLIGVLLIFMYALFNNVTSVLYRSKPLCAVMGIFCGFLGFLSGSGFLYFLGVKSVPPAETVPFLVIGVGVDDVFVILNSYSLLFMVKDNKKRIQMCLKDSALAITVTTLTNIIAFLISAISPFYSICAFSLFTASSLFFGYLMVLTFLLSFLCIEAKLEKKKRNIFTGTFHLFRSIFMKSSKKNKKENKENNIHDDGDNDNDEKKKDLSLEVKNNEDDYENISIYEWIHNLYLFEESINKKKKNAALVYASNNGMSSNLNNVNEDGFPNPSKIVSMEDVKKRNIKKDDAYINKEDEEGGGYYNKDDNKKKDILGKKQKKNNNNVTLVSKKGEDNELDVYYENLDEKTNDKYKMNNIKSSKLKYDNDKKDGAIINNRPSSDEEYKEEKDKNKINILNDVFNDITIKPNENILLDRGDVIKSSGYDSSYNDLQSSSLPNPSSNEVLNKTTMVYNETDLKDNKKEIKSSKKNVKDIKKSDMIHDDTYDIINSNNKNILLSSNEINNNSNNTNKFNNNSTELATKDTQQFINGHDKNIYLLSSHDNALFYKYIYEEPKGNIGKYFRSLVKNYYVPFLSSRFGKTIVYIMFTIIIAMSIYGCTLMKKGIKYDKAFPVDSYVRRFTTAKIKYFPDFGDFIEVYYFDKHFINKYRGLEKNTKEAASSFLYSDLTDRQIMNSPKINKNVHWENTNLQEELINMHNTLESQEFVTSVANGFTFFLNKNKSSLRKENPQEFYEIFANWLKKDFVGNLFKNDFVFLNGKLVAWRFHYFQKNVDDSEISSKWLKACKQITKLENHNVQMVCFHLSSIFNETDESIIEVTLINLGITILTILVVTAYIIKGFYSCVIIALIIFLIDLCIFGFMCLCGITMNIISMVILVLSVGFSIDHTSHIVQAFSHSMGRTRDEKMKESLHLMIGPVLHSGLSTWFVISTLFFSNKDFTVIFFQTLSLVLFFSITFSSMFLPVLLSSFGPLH

PfNCR1 [2] = target: T1, PfNCR1; test: cryo-EM structure of the complex, […] Å; settings: 1 mM compound; ecto site, displaces CHS
PfNCR1 [3] = target: T1, PfNCR1; test: cryo-EM structure of the complex; settings: ecto site, alongside CHS; GDN

Compound	apparent Kd (PfNCR1 [1])	cryo-EM structure of the complex, 3.69 Å (PfNCR1 [2])	cryo-EM structure of the complex (PfNCR1 [3])
CC(C)c1cccc(C(NC(=O)C2Cc3ccccc3CN2C(=O)c2cccc(N3CCOCC3)c2)C2CCCC2)c1 (stereo not drawn) [Compound 2, MMV028038]	tryptophan quenching-based binding assays revealed the apparent Kd values in the micromolar range	this ligand completely displaces the CHS molecule in the ECD sterol site	
COc1ccc(N2CCN(C(CNC(=O)c3c(F)cccc3F)c3ccc4c(c3)OCO4)CC2)cc1 (stereo not drawn) [Compound 4, G856-4236]			the new compound was bound to the ecto site without displacing the sterol
